# Data from patent US20110166196A1, “TREATMENT AND PROPHYLAXIS OF EPILEPSY AND FEBRILE SEIZURES” (priority 2008, published 2011).
# Legend:
# [1] = test system: excitatory synapses on interneurons; test: Drug-induced depression of EPSC amplitudes in slices from TRPV1-/- and C57BL/6 wild-type mice; type: cell-based, mouse; settings: capsaicin 1 μM
# Source text: The basic methods have been detailed previously (McMahon and Kauer, 1997). Sprague-Dawley rats (15-22 days old) were used in the majority of experiments. In addition, we used TRPV1^−/− mice (Caterina et al., 2000) and wild-type C57BL/6 mice aged between 15 and 21 days (Jackson Laboratory). The TRPV1^−/− mice we used have been backcrossed at least 10 times onto a C57BL/6 background and were obtained from homozygous breeding pairs. Control mice were therefore not littermates but were age-matched, wild-type C57BL/6 animals received from the same supplier in the same shipment. All animal protocols were approved by the Brown University Institutional Animal Care and Use Committee. For mouse experiments, only one brain slice per mouse was used for each experiment, so that reported ‘n’ numbers represent the number of animals. Animals were anaesthetized using halothane or isoflurane and quickly decapitated. […]
# Slices were continuously perfused with ACSF warmed to 28-32° C. at a flow rate of 1-2 ml/min. […] EPSCs were stimulated at 0.1 Hz (100 μsec) using a bipolar stainless steel stimulating electrode placed in stratum radiatum at least 200 μm from the recorded cell. […] In early experiments, we measured rectification ratios of EPSCs evoked at +40 mV/−60 mV in the presence of 50 μM D-AP5, measured at the time of peak inward synaptic current seen at −70 mV (Lei and McBain, 2004).
# The maximal initial slope of fEPSPs was calculated using a LabVIEW-based program (National Instruments). The peak amplitude of each EPSC was measured by comparing a 10 msec time period immediately prior to the stimulus with the peak of the EPSC using this program as well. Occasionally polysynaptic responses were evoked, and in these cases, only the initial monosynaptic event was measured. To positively identify LTD, EPSCs measured every 10 seconds were averaged in 1 minute intervals. […]
# [2] = test system: synapses between CA3 and CA1 pyramidal cells; test: Field EPSP recordings in hippocampal slices; type: cell-based, rat
# Procedure: The maximal initial slope of fEPSPs was calculated using a LabVIEW-based program (National Instruments). The peak amplitude of each EPSC was measured by comparing a 10 msec time period immediately prior to the stimulus with the peak of the EPSC using this program as well. Occasionally polysynaptic responses were evoked, and in these cases, only the initial monosynaptic event was measured. To positively identify LTD, EPSCs measured every 10 seconds were averaged in 1 minute intervals. EPSC amplitude values were normalized to control pre-HFS EPSC amplitude values (baseline period of at least 5 minutes prior to HFS) and subjected to analysis of variance (ANOVA) repeated measures analysis with a post-hoc Dunnett's test (GraphPad Prism, Version 4). […] EPSC amplitude values 15 to 20 minutes post-HFS were compared between control LTD experiments and those carried out either in transgenic TRPV1^−/− mice, or in the presence of drug using a t-test (unpaired, two-tailed, with Welch's correction if the variances between the groups were unequal). To calculate the effects of capsaicin, 12-(S)-HPETE or WIN 55,212-2 application on basal excitatory glutamatergic transmission, normalized EPSC amplitudes or fEPSP slopes were averaged in the final 5 minutes of drug application and compared with EPSCs/EPSPs 5 minutes prior to drug application. In addition, to measure capsaicin's effects on holding current, the peak change in holding current was measured during bath application of 3 μM capsaicin. The n-values reported refer to the number of slices. All combined data are expressed as mean±the standard error of the mean (s.e.m.).
smiles,measurement,setting,value
"COc1cc(CNC(=O)CCCCC=CC(C)C)ccc1O [capsaicin, 8-methyl-N-vanillyl-6-nonenamide]",EPSC amplitudes after 10-15 minutes in capsaicin in C57BL/6 wild-type mice,"[1]; C57BL/6 wild-type mice, n=6",50.5±12.1 % of pre-drug control values
same,EPSC amplitudes after 10-15 minutes in capsaicin in TRPV1−/− mice,"[1]; TRPV1−/− mice, n=8",100.7±6.6 % of pre-drug control values
same,fEPSP slopes after 10-15 minutes in capsaicin,"[2]; 1 μM capsaicin, P=0.58, n=5",102.8±5.4 % of pre-drug control values
same,effect on synaptic transmission at the CA3-CA1 synapse,"[2]; 10 μM capsaicin, often with depression of presynaptic fiber volley",depressed synaptic transmission
